“Also recorded” adds a separate entry of the source.
Legend:
[1] = system: MDCK cells; assay: GTTR uptake into MDCK cells under TRPV1 agonists/antagonists, cation channel blockers, cations and pH (30-60 seconds, 20° C., FATX fixation, confocal imaging); details: for hydrolyzed TR penetration into the cytoplasm (control for toxicity or increased permeability): highest doses shown: 5×10^−7 M RTX; for GTTR uptake stimulated by TRPV1 agonists/antagonists: AND, SB366791 or I-RTX
Excerpt: MDCK cells were used as a model system to test regulation of GTTR uptake by conditions known to produce or modify a cation current through the TRPV1 channel. Conditions tested were varying extracellular calcium concentrations, pH, specific agonists, specific antagonists, and the non-specific cation channel blocker Ruthenium Red. In addition, we pre-mixed PIP2 with GTTR to determine whether that anionic phospholipid, known to bind gentamicin, would alter GTTR uptake. All these assays were done at room temperature (20° C.), for 30 or 60 seconds, and using doses of GTTR of 5 to 10 μg/ml, which are far below the typical therapeutic level of <300 μg/ml. Buffers used for treatment were as described for each experiment. Cells were quickly washed to replace culture medium with treatment buffer, treated as indicated, washed again after treatment, fixed immediately with 4% formaldehyde and 0.5% Triton X-100 (FATX), and washed prior to imaging.
Methods: Cells were seeded into 8-well coverglass chambers at 3000 cells/well and grown for 5 days.
Cells were washed three times with the buffer to be used in the particular experiment, treated with GTTR and experimental variable for 30 or 60 seconds at 20° C., precluding endocytosis. Following treatment, cells were rinsed three times with buffer, then fixed and delipidated with 4% formaldehyde plus 0.5% Triton X-100 (FATX) for 45 minutes. Following fixation, cells were rinsed with PBS (Invitrogen, CA) for at least 4-6 times, or until foaming in the suction pipette ceased. In contrast to previous experiments, no FBS was present in the treatment media, allowing for more rapid uptake of the antibiotic-based GTTR.
MDCK cells were washed with Hank's buffered salt solution (HBSS; Invitrogen, CA), then placed into buffers of varying potassium concentrations. HBSS was mixed with equi-osmolar KCl/HBSS to produce the required K^+ concentrations. Cells were treated with 1 μg/mL GTTR for 1 minute, then washed and fixed as described above.
Cells were washed with PBS (Invitrogen, CA), then placed into buffers containing varying concentrations of calcium, obtained by mixing HBSS with equimolar CaCl2, each at pH 7.3. Cells were treated with 5 μg/mL of GTTR for 30 seconds, then washed and fixed as above.
Cells were washed with saline, then treated with 5 μg/mL of GTTR in saline buffers of varying pH for 30 seconds, then washed and fixed as above. Sodium hydroxide and hydrochloric acid were used to alter pH. These experiments were performed in three different saline buffers: (i) PBS (no calcium), (ii) a mixture of […] for a final calcium concentration of 0.32 mM, and (iii) a mixture of three parts PBS to one part HBSS for a final calcium concentration of 0.97 mM.
Cells were washed three times with Ca^++-free saline (0.9% NaCl), then treated with 5 μg/mL GTTR and one of the following for 30 seconds: TRPV1 agonists (resiniferatoxin [RTX]; or anandamide [AND]; Alexis Biochemicals, San Diego, Calif.); or antagonists (iodo-RTX, or SB 366791; Tocris, Ellisville, Mo.). Cells were then washed in saline and fixed as above.
Cells were washed three times with Ca^++-free 0.9% NaCl, then treated with 5 μg/mL GTTR and one of the following for 30 seconds: 100 μM Ruthenium Red, 100 μM Ruthenium Red plus one of the TRPV1 agonists or antagonists described above; or lanthanum (La^+++) at 0.5 or 5 mM.

[2] = system: inner ear explants; assay: GTTR uptake in explants of bullfrog and murine inner ears (Example 9); type: cell-based
Excerpt: Deafness and nephrotoxicity are serious consequences of aminoglycoside (AG) therapy. As discussed above, in cultured kidney cells, the non-endocytotic component of fluorescently-labeled gentamicin (GTTR) uptake was regulated by TRPV1 channel agonists and antagonists (pH, Ca^++, RTX). This example discusses the influence of these modulators on GTTR uptake in explants of bullfrog and murine inner ears.

[3] = cited from earlier work
[4] = system: bullfrog saccular hair cells; assay: GTTR uptake in bullfrog saccular explants with TRPV1 regulators; type: cell-based
Procedure: Bullfrogs (Rana catesbeiana) were anesthetized with 0.2% MS-222 and chilled before decapitation. The temporal bones were excised in cold oxygenated HEPES-buffered saline (HBS) containing 110 mM Na+; 2 mM K+; 4 mM Ca2+; 120 mM Cl−; 3 mM D-glucose, and 5 mM HEPES (pH=7.25; 220 mOsmols). Each saccule was isolated and the otolithic membrane removed by proteolytic digestion for 20 minutes in oxygenated 50 μg/ml subtilopeptidase BPN (Sigma) at room temperature. Saccular explants were then incubated in Wolf-Quimby culture medium (containing 1 mM Ca2+; Life Technologies) supplemented with 100 μg/ml ciprofloxacin in a 5% CO2 environment at 25° C. (Steyger et al. 1997; Steyger et al. 1998). Gentamicin-treated explants were incubated in the above culture media, supplemented with 300 μg/ml GT/GTTR.

[5] = system: murine cochlear explants; assay: GTTR uptake in murine cochlear explants with RTX; type: cell-based; details: level of OHC nuclei

SMILES: [Ca+2].[Cl-].[Cl-] [calcium, calcium chloride]
- GTTR uptake ([1]; 0.16 mM Ca^++ vs no calcium added or 2.0 mM, pH 7.0, 1 μg/mL GTTR): higher
- GTTR uptake ([1]; 0.16 mM calcium vs no calcium added, saline pH 7.3): increased
- GTTR uptake ([1]; calcium concentrations above 0.16 mM, saline pH 7.3): GTTR uptake decreased
- GTTR uptake ([1]; calcium levels higher than 1.8 mM): almost completely blocking uptake
- GTTR uptake ([1]; physiological calcium levels (1.8 mM)): inhibitory
- GTTR uptake ([2]; 0.16 mM Ca^++ compared to 0.0 mM Ca^++): greater GTTR uptake

SMILES: CC(C)[C@@H]1NC(=O)[C@H](C)OC(=O)[C@@H](C(C)C)NC(=O)[C@@H](C(C)C)OC(=O)[C@H](C(C)C)NC(=O)[C@H](C)OC(=O)[C@@H](C(C)C)NC(=O)[C@@H](C(C)C)OC(=O)[C@H](C(C)C)NC(=O)[C@H](C)OC(=O)[C@@H](C(C)C)NC(=O)[C@@H](C(C)C)OC1=O [Valinomycin]
- GTTR uptake ([1]; 10 μg/mL valinomycin in HBSS pH 7.3, 5 μg/mL GTTR 30 seconds): decreased the uptake of GTTR compared to control cells

SMILES: [Gd+3] [Gd^+++, Gadolinium]
- GTTR uptake ([1]; 0.5, 5, or 50 mM Gd^+++ in HBSS pH 7.3, 30 seconds): serially decreased

SMILES: CCCCC/C=C\C/C=C\C/C=C\C/C=C\CCCC(=O)NCCO [AND, anandamide]
- GTTR uptake ([1]; AND 10^−4 M, calcium-free saline pH 7.3): little, or no, increase over controls; also recorded: little or no increase over controls
- GTTR uptake ([1]; AND 10^−5 M, calcium-free saline pH 7.3 (Example 1: greater extent than 10^−6 M)): increased, although not to the level seen with RTX
- GTTR uptake ([1]; AND 10^−6 M, calcium-free saline pH 7.3): increased, although not to the level seen with RTX

SMILES: [Cl-].[K+] [K^+, KCl]
- GTTR uptake ([1]; K^+ increased from 10 mM to 140 mM vs 5.8 mM, HBSS pH 7.3, 1 minute): clear and considerable decrease in GTTR uptake
- GTTR uptake ([2]; potassium depolarization of explants): decreased GTTR uptake

SMILES: [H]/N=C(/N)N[C@H]1[C@H](O)[C@@H](O)[C@H](O[C@@H]2O[C@@H](C)[C@](O)(C=O)[C@H]2O[C@@H]2O[C@@H](CO)[C@H](O)[C@@H](O)[C@@H]2NC)[C@@H](N/C(N)=N\[H])[C@@H]1O [streptomycin]
- incidence of vestibular impairment ([3]; 1 gram per day): 25%
- patients displaying some vestibular impairment ([3]; 2 grams daily for 60 to 120 days): ~75%

SMILES: COc1cccc(NC(=O)/C=C/c2ccc(Cl)cc2)c1 [SB366791]
- GTTR uptake ([1]; SB366791 10^−7 M to 10^−5 M, calcium-free saline pH 7.3): increased GTTR uptake significantly; also recorded: serially increased GTTR uptake

SMILES: C=C(C)[C@]12C[C@@H](C)[C@@]34O[C@](Cc5ccccc5)(O[C@@H]1[C@@H]3C=C(COC(=O)Cc1ccc(O)c(OC)c1)C[C@]1(O)C(=O)C(C)=C[C@@H]41)O2 [RTX, resiniferatoxin]
- GTTR uptake ([1]; 5×10^−9 M RTX with 0.16 or 2.0 mM added calcium, pH 7.0): reduced GTTR uptake compared to controls at the same calcium levels
- GTTR uptake ([1]; 5×10^−9 M RTX, saline without added calcium, pH 7.0, 1 μg/mL GTTR 30 seconds): increased GTTR uptake
- GTTR uptake ([1]; RTX 5×10^−7 M, calcium-free saline pH 7.3, 5 μg/mL GTTR 30 seconds): little or no change over control
- GTTR uptake ([1]; RTX 5×10^−8 M, calcium-free saline pH 7.3, 5 μg/mL GTTR 30 seconds): increased, but to a lesser extent
- GTTR uptake ([1]; RTX 5×10^−9 M, calcium-free saline pH 7.3, 5 μg/mL GTTR 30 seconds): significantly increased
- GTTR uptake ([1]; RTX 10^−6 M, calcium-free saline pH 7.3): little or no change over control
- GTTR uptake ([1]; RTX 10^−7 M, calcium-free saline pH 7.3): increased to a lesser extent
- GTTR uptake ([1]; RTX 10^−8 M, calcium-free saline pH 7.3): significantly increased
- GTTR uptake ([1]; RTX with calcium concentrations as low as 0.08 mM): inhibited GTTR uptake
- GTTR uptake ([1]; combination of 2 mM Ca^++ and 5×10^−9 RTX): greatly reduced GTTR uptake
- hydrolyzed TR penetration into the cytoplasm (control for toxicity or increased permeability) ([1]; 10^−5 M I-RTX): Neither I-RTX or RTX induced TR penetration into the cytoplasm
- GTTR uptake ([2]; RTX at 0.16 mM Ca^++): enhanced GTTR uptake
- GTTR uptake ([2]; RTX at physiological Ca^++ levels): reduced GTTR uptake
- GTTR uptake in saccular hair cells ([4]; RTX and Ca++ co-treatment): reduced by co-treatment with RTX, and Ca++
- GTTR uptake in saccular hair cells ([4]; RTX co-administered with GTTR): significantly reduced by RTX
- GTTR uptake in the organ of Corti ([5]; RTX plus Ca++): reduced further by RTX plus Ca++
- GTTR uptake in the organ of Corti ([5]; RTX): reduced by RTX

SMILES: N.N.N.N.N.N.N.N.N.N.N.N.N.N.[Cl-].[Cl-].[Cl-].[Cl-].[Cl-].[Cl-].[O-2].[O-2].[Ru+3].[Ru+3].[Ru+4] [RR, Ruthenium Red]
- GTTR uptake ([1]; 10 mM RR alone (Example 1)): took up less GTTR than controls
- GTTR uptake stimulated by TRPV1 agonists/antagonists ([1]; 10 mM RR plus RTX, AND effect not completely blocked (Example 1)): blocked GTTR increases stimulated by RTX, AND, SB366791, and I-RTX
- GTTR uptake ([1]; 10^−5 M RR alone (Example 11)): took up less GTTR than controls
- GTTR uptake stimulated by TRPV1 agonists/antagonists ([1]; 10^−5 M RR plus RTX, AND effect not completely blocked (Example 11)): blocked GTTR increases stimulated by RTX, AND, SB366791, and I-RTX
- GTTR uptake in saccular hair cells ([4]; Ruthenium Red): significantly reduced by Ruthenium Red
- GTTR uptake in saccular hair cells ([4]; Ruthenium Red in explants co-treated with iodo-RTX): significantly reduced by Ruthenium Red

SMILES: C=C(C)[C@]12C[C@@H](C)[C@@]34O[C@](Cc5ccccc5)(O[C@@H]1[C@@H]3C=C(COC(=O)Cc1cc(I)c(O)c(OC)c1)C[C@]1(O)C(=O)C(C)=C[C@@H]41)O2 [I-RTX]
- GTTR uptake ([1]; 10^−5 M I-RTX with 0.16 or 2.0 mM added calcium, pH 7.0): still caused increased GTTR uptake
- GTTR uptake ([1]; 10^−5 M I-RTX, saline without added calcium, pH 7.0, 1 μg/mL GTTR 30 seconds): increased GTTR uptake
- GTTR fluorescence ([1]; I-RTX 10^−5 M, calcium-free saline pH 7.3): well over the upper limit of the available 0 to 255 gray scale
- hydrolyzed TR penetration into the cytoplasm (control for toxicity or increased permeability) ([1]; 10^−5 M I-RTX): Neither I-RTX or RTX induced TR penetration into the cytoplasm
- GTTR uptake, effect compared with SB366791 ([1]; iodo-RTX dose series 10^−7 to 10^−5 M, calcium-free saline pH 7.3, listed as 1-RTX): dramatic; also recorded: more dramatic
- GTTR uptake in saccular hair cells ([4]; iodo-RTX): significantly enhanced by iodo-RTX

Reference: US20070082858A1, “Methods and compositions for the prevention of toxic side effects of aminoglycoside medications” (priority 2004, published 2007)
